Entries after “also recorded” stand apart in the source; their conditions may differ.
Tests used:
bactéries = test: Toxicity of the substrates towards the bacteria in the agar test; type: cell-based; details: substrate in agar 10 to 300 µg/ml, high concentration = 300 µg/ml
Procedure: (§1) Tous les substrats (composés 10c, 10d et […]) sont incorporés à la gélose à différentes concentrations couvrant une gamme de 10 à 300µg/ml.
(§2) Les composés sont préalablement dissous dans le DMSO et dilués dans de l'eau bi-distillée pour constituer des solutions mères à 800µg/ml, qui peuvent être conservées au moins une semaine à +4°C. Les solutions mères sont diluées ensuite pour délivrer les paliers de concentrations définis à 10, 50, 100, 200 et 300µg/ml.
(§3) Ces substrats sont ajoutés à la gélose à 45°C (une température de 85°C fut tolérée par les substrats), préalablement tamponnée à pH=7 et stérilisée par autoclavage. Les boîtes de gélose sont ensuite ensemencées d'une suspension de colonies, stérilement, à l'öse de platine par stries transversales et selon la méthode des quadrants. L'incubation est poursuivie durant une nuit à 37°C.
(§4) Pour chaque concentration on réalise un banc sans colonies et pour chaque type bactérien, un contrôle de culture sans substrat, de sorte que l'on ne puisse observer que les effets de la présence simultanée des colonies et du substrat incorporé à la gélose.

[1] = Diffusion of the released dye in the agar; type: physicochemical; details: in the agar (gélose)
Procedure: as §1, §3
La révélation des bactéries Gram(-), rendues fluorescentes par le fluorophore S107, S108 ou S109 libéré est réalisée sous lampe UV à une longueur d'onde d'excitation de 365nm, compatible avec les dispositifs commercialisés. […]
Les colorants ne diffusent pas dans la gélose, de sorte que la fluorescence n'est émise que par les colonies bactériennes au site de leur croissance. Egalement, les réactions positives (fluorescence claire, lumineuse intense, des colonies Gram négatives sur un fond translucide, estompé bleu/vert pâle, fluorescence d'intensité plus faible pour les bactéries Gram positives) s'observent dès les concentrations faibles à 10µg/ml, ce qui confirme l'utilité de la nature hydrophobe des substrats, de l'absence de diffusion qui en découle et donc de l'efficacité des substrats préparés.

Enterococcus faecalis = test: Agar test with incorporated fluorogenic substrates (L-alanine aminoaryl peptidase activity), fluorescence of colonies; type: cell-based; details: Gram +, substrate in agar 10 to 300 µg/ml, pH 7, overnight at 37°C, UV 365 nm
Text: (§5) Cette différenciation fait appel à une méthode spécifique de discrimination optique des bactéries à coloration de Gram(+) ou Gram(-), qui est réalisée par l'utilisation de substrats fluorogénes de la L-alanine amino arylpeptidase, activité enzymatique retrouvée principalement dans la paroi des bactéries à coloration de Gram(-), comme il est décrit par Cerny G dans European Journal of Applied Microbiology, 1976, 3, p. 223-225, et 1978 5, p. 113-122.
(§6) Dans cet exemple, on utilise cette méthode de détection des activités enzymatiques bactériennes de la L-alanine aminoaryl peptidase avec les substrats fluorogènes S107, S108 et S109 utilisant les composés 10e, 10c et 10d des exemples 15, 13 et 14. Ces substrats sont incorporés à la gélose selon la méthode énoncée par Manafi & Kneifel dans Journal of Applied Bacteriology 1990, 69, p. 822-827.
as §1, §2, §3, §4
(§7) La révélation des bactéries Gram(-), rendues fluorescentes par le fluorophore S107, S108 ou S109 libéré est réalisée sous lampe UV à une longueur d'onde d'excitation de 365nm, compatible avec les dispositifs commercialisés. L'émission fluorescente impressionne un papier film 35mm Kodak® Ektar® 1000/30° pour un temps d'exposition au 1/60ème de seconde-process C-41.

Escherichia coli = test: as above; type: cell-based; details: Gram -, substrate in agar 10 to 300 µg/ml, pH 7, overnight at 37°C, UV 365 nm
Text: as §5, §6, §1, §2, §3, §4, §7

[2] = tested on: bactéries Gram(+) et Gram(-); test: Differentiation of Gram(+) and Gram(-) bacteria with fluorogenic substrates incorporated in agar; type: cell-based; details: in agreement with Gram staining
Text: Exemple 22. Cet exemple illustre l'utilisation des dérivés de coumarines des exemples 13, 14 et 15 pour La différenciation des bactéries Gram(+) et Gram(-)par incorporation de ces dérivés de coumarines et révélation des colonies fluorescentes.
as §5, §6
Tous les substrats (composés 10c, 10d et […]) sont incorporés à la gélose à différentes concentrations couvrant une gamme de 10 à 300µg/ml. […]

| Structure (SMILES) | Toxicité (bactéries) | Diffusion [1] | Test gélose aux substrats (fluorescence) (Enterococcus faecalis) | Test gélose aux substrats (fluorescence) (Escherichia coli) | discrimination des bactéries Gram négatives des bactéries Gram positives [2] |
| --- | --- | --- | --- | --- | --- |
| CCCCCCCCCc1cc(=O)oc2cc(NC(=O)[C@H](C)N)ccc12 [S107] | faible; also recorded: non toxiques; also recorded: Toxicité partielle à forte concentration | non diffusibles; also recorded: Diffusion nulle | Fluorescence très faible | Fluorescence moyenne |  |
| CCCCCCc1cc(=O)oc2cc(NC(=O)[C@H](C)N)ccc12 [S108] | non toxiques; also recorded: Toxicité nulle | non diffusibles; also recorded: Diffusion nulle | Fluorescence faible | Fluorescence très importante | très efficaces |

Source: patent EP0693064B1, “HYDROPHOBIC AMINOCOUMARIN DERIVATIVES AND THEIR USE AS PROTEOLYTIC ENZYME SUBSTRATES OR IN THE PREPARATION OF SUCH SUBSTRATES” (priority 1993, dated 1994)
